These results are taken from publication PMC8002351, “Triterpenes and Phenolic Compounds from the Fungus Fuscoporia torulosa: Isolation, Structure Determination and Biological Activity” (Molecules, 2021).

In data set [1] the test system is Escherichia coli ATCC 25922. Nature of the data set: Minimum inhibitory concentration by microdilution method. The class given is cell-based. The settings on record: ATCC25922, broth dilution, 18 h.
For data set [2], the system named is S. aureus 27,213 (methicillin and ofloxacin resistant clinical isolate). Described as above. The settings on record: Staphylococcus aureus; broth dilution, 18 h. The format is cell-based.
The test system of data set [3] is Salmonella enterica serovar Typhimurium 14028s. The data set is described as above. The format is cell-based. The settings on record: broth dilution, 18 h.
Another data set deals with MRC-5. Nature of the data set: Assay for cytotoxic effect (MTT). The format is cell-based, human. The settings on record: for IC50: normal MRC-5 embryonal fibroblast cells, MTT, 24 h; for cytotoxic effect (in words): MRC-5, applied concentration up to 100 μM. On the procedure: (§1) The human colon adenocarcinoma cell lines, the Colo 205 (ATCC-CCL-222) doxorubicin-sensitive parent and Colo 320/MDR-LRP (ATCC-CCL-220.1) resistant to anticancer agents expressing ABCB1, were purchased from LGC Promochem (Teddington, UK). The cells were cultured in RPMI-1640 medium supplemented with 10% heat-inactivated fetal bovine serum (FBS), 2 mM L-glutamine, 1 mM Na-pyruvate, 100 mM Hepes, nystatin, and a penicillin–streptomycin mixture in concentrations of 100 U/L and 10 mg/L, respectively. The MRC-5 (ATCC CCL-171) human embryonic lung fibroblast cell line (LGC Promochem) was cultured in EMEM medium, supplemented with 1% nonessential amino acid (NEAA) mixture, 10% heat-inactivated FBS, 2 mM L-glutamine, 1 mM Na-pyruvate, nystatin, and a penicillin–streptomycin mixture in concentrations of 100 U/L and 10 mg/L, respectively. The cell lines were incubated in a humidified atmosphere (5% CO2, 95% air) at 37 °C.
(§2) The effects of increasing concentrations of the compounds on cell growth were tested in 96-well flat-bottomed microtiter plates. The two-fold serial dilutions of the tested compounds were made starting with 100 μM. Then, 10^4 of human colonic adenocarcinoma cells in 100 μL of the medium (RPMI-1640) were added to each well, except for the medium control wells. The adherent human embryonic lung fibroblast cell line (10^4/well) was seeded in EMEM medium in 96-well flat-bottomed microtiter plates for 4 h before the assay. The serial dilutions of the compounds were made in a separate plate starting with 100 μM, and then transferred to the plates containing the adherent corresponding cell line. Culture plates were incubated at 37 °C for 24 h; at the end of the incubation period, 20 μL of MTT (thiazolyl blue tetrazolium bromide) solution (from a 5 mg/mL stock solution) were added to each well. After incubation at 37 °C for 4 h, 100 μL of sodium dodecyl sulfate (SDS) solution (10% SDS in 0.01 M HCl) were added to each well and the plates were further incubated at 37 °C overnight. Cell growth was determined by measuring the optical density (OD) at 540 nm (ref. 630 nm) with a Multiscan EX ELISA reader (Thermo Labsystems, Cheshire, WA, USA). Inhibition of cell growth was expressed as IC50 values, defined as the inhibitory dose that reduces the growth of the cells exposed to the tested compounds by 50%. IC50 values and the SD of triplicate experiments were calculated using GraphPad Prism software version 5.00 for Windows with nonlinear regression curve fit (GraphPad Software, San Diego, CA, USA; www.graphpad.com). The statistical analysis of data was performed using GraphPad Prism software version 5.00, applying the two-tailed t-test.

The subject of a further data set is Colo 205. Nature of the data set: Assay for cytotoxic effect (MTT). The class given is cell-based, human. The settings on record: for cytotoxic effect (in words): Colo 205, applied concentration up to 100 μM; for IC50: sensitive Colo 205 cells, MTT, 24 h. On the procedure: as §1, §2
Data set [4] deals with Colo 320. Briefly: Assay for cytotoxic effect (MTT). The settings on record: for cytotoxic effect (in words): Colo 320, applied concentration up to 100 μM; for IC50: resistant Colo 320 cells, MTT, 24 h. The format is cell-based, human. The protocol:
as §1, §2

Data set [5] deals with Staphylococcus aureus ATCC 25,923. Briefly: Minimum inhibitory concentration by microdilution method. The settings on record: ATCC25, broth dilution, 18 h. The format is cell-based.
The next data set deals with T1, P-glycoprotein (P-gp) (Homo sapiens, UniProt P08183).
T1 construct: Colo 320/MDR-LRP (ATCC-CCL-220.1) resistant to anticancer agents expressing ABCB1
T1 sequence (P08183 whole entry): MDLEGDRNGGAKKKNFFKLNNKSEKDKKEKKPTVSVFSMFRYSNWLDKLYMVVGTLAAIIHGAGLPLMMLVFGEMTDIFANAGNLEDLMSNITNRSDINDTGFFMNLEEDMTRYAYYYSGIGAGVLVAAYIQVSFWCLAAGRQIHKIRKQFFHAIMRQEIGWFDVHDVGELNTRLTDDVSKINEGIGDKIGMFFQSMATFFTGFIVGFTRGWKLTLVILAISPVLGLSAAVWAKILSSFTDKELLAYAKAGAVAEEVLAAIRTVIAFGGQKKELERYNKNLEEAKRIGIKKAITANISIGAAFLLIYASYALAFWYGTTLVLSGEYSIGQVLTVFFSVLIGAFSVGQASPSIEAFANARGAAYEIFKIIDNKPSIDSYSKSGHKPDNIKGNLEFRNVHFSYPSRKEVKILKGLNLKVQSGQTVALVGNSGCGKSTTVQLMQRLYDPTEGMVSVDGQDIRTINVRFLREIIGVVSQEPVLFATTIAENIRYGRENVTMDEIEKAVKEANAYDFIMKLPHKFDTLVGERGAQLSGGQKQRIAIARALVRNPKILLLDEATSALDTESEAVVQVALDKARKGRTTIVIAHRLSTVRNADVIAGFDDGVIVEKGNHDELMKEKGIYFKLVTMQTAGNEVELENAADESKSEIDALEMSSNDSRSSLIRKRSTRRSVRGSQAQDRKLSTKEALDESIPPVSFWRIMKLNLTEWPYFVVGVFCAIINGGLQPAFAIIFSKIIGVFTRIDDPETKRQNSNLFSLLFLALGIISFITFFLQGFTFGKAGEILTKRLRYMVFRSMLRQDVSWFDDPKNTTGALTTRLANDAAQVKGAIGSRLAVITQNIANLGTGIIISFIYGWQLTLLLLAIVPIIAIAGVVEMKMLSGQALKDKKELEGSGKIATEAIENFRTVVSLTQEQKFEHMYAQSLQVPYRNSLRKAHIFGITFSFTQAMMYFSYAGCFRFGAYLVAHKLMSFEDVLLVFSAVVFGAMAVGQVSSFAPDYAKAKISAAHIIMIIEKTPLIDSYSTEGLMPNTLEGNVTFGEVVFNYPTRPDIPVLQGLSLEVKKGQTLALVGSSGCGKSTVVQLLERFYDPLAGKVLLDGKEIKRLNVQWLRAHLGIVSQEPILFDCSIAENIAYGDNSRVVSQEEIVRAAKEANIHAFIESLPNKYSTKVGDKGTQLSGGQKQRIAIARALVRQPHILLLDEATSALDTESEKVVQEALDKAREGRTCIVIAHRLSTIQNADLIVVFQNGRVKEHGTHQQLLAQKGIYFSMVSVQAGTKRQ
Nature of the data set: Rhodamine 123 accumulation assay (flow cytometry). The format is cell-based. Set-up: key to FAR (fluorescence activity ratio): FAR = (Colo320 treated/control)/(Colo205 treated/control). The settings on record: for FSC / SSC: Colo 320. The protocol:
The cell numbers of the human colon adenocarcinoma cell lines were adjusted to 2 × 10^6 cells/mL, re-suspended in serum-free RPMI 1640 medium, and distributed in 0.5 mL aliquots into Eppendorf centrifuge tubes. The tested compounds were added at concentrations of 2 or 20 μM, and the samples were incubated for 10 min at room temperature. Tariquidar was applied as positive control at 0.2 μM. DMSO at 2% v/v was used as solvent control. Next, 10 µL (5.2 µM final concentration) of the fluorochrome and ABCB1 substrate rhodamine 123 (Sigma) were added to the samples and the cells were incubated for a further 20 min at 37 °C, washed twice, and re-suspended in 1 mL PBS for analysis. The fluorescence of the cell population was measured with a PartecCyFlow® flow cytometer (Partec, Münster, Germany). The fluorescence activity ratio was calculated as the quotient between the FL-1 of the treated/untreated resistant Colo 320 cell line over the treated/untreated sensitive Colo 205 cell line according to the following equation [31]:(1) FAR = Colo320treated/Colo320control/Colo205treated/Colo205control

The test system of data set [6] is Colo 320. Briefly: Checkerboard combination assay with doxorubicin. The settings on record: for Fraction affected: Colo 320; for Dm (median-effect dose) in the combination: FuTo III:Doxo ratio 11:1, dose of the named component; for Dm (median-effect dose) in the combination / Dm (median-effect dose), drug alone: Colo 320, 72 h; for Dm (median-effect dose), drug alone: single drug, CompuSyn. The class given is cell-based, human. On the procedure:
A checkerboard microplate method was applied to study the effect of drug interactions between the compound 8 and the chemotherapeutic drug doxorubicin. The assay was carried out on Colo 320 colon adenocarcinoma cell line. The final concentration of the compounds and doxorubicin used in the combination experiment was chosen in accordance with their cytotoxicity towards this cell line. The dilutions of doxorubicin were made in a horizontal direction for the 100 μL volume, and the dilutions of the compounds were made vertically in the microtiter plate for the 50 μL volume. Then, 6 × 10^3 of Colo 320 cells in 50 μL of the medium were added to each well, except for the medium control wells. The plates were incubated for 72 h at 37 °C in 5% CO2 atmosphere. The cell growth rate was determined after MTT staining. At the end of the incubation period, 20 μL of MTT solution (from a stock solution of 5 mg/mL) were added to each well. After incubation at 37 °C for 4 h, 100 μL of SDS solution (10% in 0.01 M HCI) were added to each well and the plates were further incubated at 37 °C overnight. OD was measured at 540 nm (ref. 630 nm) with a Multiscan EX ELISA reader. Combination index (CI) values at 50% of the growth inhibition dose (ED50) were determined using CompuSyn software (ComboSyn, Inc., Paramus, NJ, USA) to plot four to five data points at each ratio. CI values were calculated by means of the median-effect equation, according to the Chou–Talalay method, where CI < 1, CI = 1, and CI > 1 represent synergism, additive effect (or no interaction), and antagonism, respectively.

[7] abbreviates: Fa 0.6829, combination FuTo III + Doxo.
The mark [8] stands for this setting: Fa 0.741889, combination FuTo III + Doxo.
[9] abbreviates: Fa 0.80679, combination FuTo III + Doxo.
Setting [10] is: Fa 0.912987, combination FuTo III + Doxo.

A value given as a limit tells only on which side of the number the result lay.

For the compound `Cc1coc(C(=O)[C@@H](C)[C@H]2CC[C@@]3(C)C4=C(CC[C@]23C)[C@@]2(C)CC[C@@](C)(C(=O)O)[C@@H]2CC4)c1` [Compound 7, natalic acid], the MIC in [1], in [2], in [3] and in data set [5] was above 100 µM throughout. In addition, the IC50 with MRC-5 (Homo sapiens, MRC5) is above 100 µM; with Colo 205 (Homo sapiens) it was above 100 µM; with Colo 320 [4] (Homo sapiens), above 100 µM. Besides, the “cytotoxic effect (in words)” value in the data set with MRC-5, in the data set on Colo 205 and in the data set on Colo 320 [4] was “did not show any significant effect” throughout. Further, the FSC at P-glycoprotein (P-gp) (20 μM) is 2095. Also, the SSC at P-glycoprotein (P-gp) (20 μM) was 891. Also, the “FAR (fluorescence activity ratio)” value on P-glycoprotein (P-gp) (20 μM, Colo 320, rhodamine-123) was 1.053.

Consider `COc1cc2c(cc1OC)CN(CCc1ccc(NC(=O)c3cc(OC)c(OC)cc3NC(=O)c3cnc4ccccc4c3)cc1)CC2` [Tariquidar, reference compound], for which, on P-glycoprotein (P-gp) (0.2 μM), the FSC is listed as 1945 and the SSC came to 837. The “FAR (fluorescence activity ratio)” value on P-glycoprotein (P-gp) (0.2 μM, Colo 320, rhodamine-123) is listed as 5.533.

As for `CC(C)=CC[C@H](O)[C@@H](C)[C@H]1CC[C@@]2(C)C3=C(CC[C@]12C)[C@@]1(C)CC[C@H](O)[C@@](C)(C(=O)O)[C@@H]1CC3` [Compound 6, senexdiolic acid], the MIC in data set [1], in [2], in data set [3] and in data set [5] was above 100 µM throughout. Also, the IC50 in the data set on MRC-5 (Homo sapiens, MRC5) was above 100 µM; with Colo 205 (Homo sapiens), above 100 µM; in the data set with Colo 320 [4] (Homo sapiens), above 100 µM. Further, on P-glycoprotein (P-gp) (20 μM), the FSC is 2074. The SSC on P-glycoprotein (P-gp) (20 μM) is reported as 861. Besides, the “FAR (fluorescence activity ratio)” value on P-glycoprotein (P-gp) (20 μM, Colo 320, rhodamine-123) was found to be 1.027.

Consider `CC(C)=CC[C@H](O)[C@@H](C)[C@H]1CC[C@@]2(C)C3=C(CC[C@]12C)[C@@]1(C)CC[C@@](C)(C(=O)O)[C@@H]1CC3` [Compound 1, 22S-hydroxy-8,24-dien-3-norlanosta-28-oic acid], for which the minimal inhibitory concentration (MIC) in data set [1], in data set [2], in [3] and in [5] was above 100 µM throughout. For the same compound, the IC50 in the data set with MRC-5 (Homo sapiens, MRC5) was above 100 µM; with Colo 205 (Homo sapiens) it was above 100 µM; with Colo 320 [4] (Homo sapiens), above 100 µM. Further, the “cytotoxic effect (in words)” value in the data set on MRC-5, in the data set with Colo 205 and with Colo 320 [4] was “did not show any significant effect” each time. In addition, the FSC at P-glycoprotein (P-gp) (20 μM) was found to be 2005. Moreover, the SSC on P-glycoprotein (P-gp) (20 μM) is given as 851. Besides, the “FAR (fluorescence activity ratio)” value at P-glycoprotein (P-gp) (20 μM, Colo 320, rhodamine-123) came to 1.139.

In the case of `COc1cccc2c1C(=O)c1c(O)c3c(c(O)c1C2=O)C[C@@](O)(C(=O)CO)C[C@@H]3O[C@H]1C[C@H](N)[C@H](O)[C@H](C)O1` [Doxorubicin, doxorubicin], the IC50 with MRC-5 (Homo sapiens, MRC5) was above 20 µM; in the data set on Colo 205 (Homo sapiens), 2.46 ± 0.26 µM; in the data set with Colo 320 [4] (Homo sapiens), 7.44 ± 0.2 µM. The Fraction affected came out at 0.6475 with Colo 320 [6] (Doxo alone 0.135 uM); 0.7257 with Colo 320 [6] (Doxo alone 0.269 uM); 0.8038 in the data set on Colo 320 [6] (Doxo alone 0.539 uM); 0.9263 with Colo 320 [6] (Doxo alone 1.078 uM); 0.9749 in the data set with Colo 320 [6] (Doxo alone 4.311 uM). In addition, the “Dose Reduction Index (DRI) for experimental values” in the data set on Colo 320 [6] (setting [7]) stood at 1.374; in the data set with Colo 320 [6] (setting [8]), 0.937; in the data set with Colo 320 [6] (setting [9]), 0.702; in the data set on Colo 320 [6] (setting [10]) it was 0.475. Also, the “Dm (median-effect dose) in the combination” value with Colo 320 [6] was found to be 0.04246 µM. In addition, in the data set with Colo 320 [6], the “Dm (median-effect dose), drug alone” value came to 0.08504 µM.

For the compound ergosta-7,22-diene-3-one [Compound 8], the IC50 with MRC-5 was determined as 7.92 ± 1.42 µM; in the data set with Colo 205 it was 11.7 ± 1.67 µM; with Colo 320 [4], 8.43 ± 1.1 µM. The FSC on P-glycoprotein (P-gp) (2 μM) was 2099. In addition, on P-glycoprotein (P-gp) (2 μM), the SSC is listed as 857. In addition, the “FAR (fluorescence activity ratio)” value on P-glycoprotein (P-gp) (2 μM, Colo 320, rhodamine-123) is given as 0.872. Further, at P-glycoprotein (P-gp) (2 μM, Colo 320, rhodamine-123), the “FL-1 (mean fluorescence of the cells)” value is recorded as 10.100. The “Dose Reduction Index (DRI) for experimental values” in the data set with Colo 320 [6] (setting [7]) was 18.211; in the data set with Colo 320 [6] (setting [8]) it was 10.119; in the data set on Colo 320 [6] (setting [9]) it was 5.811; with Colo 320 [6] (setting [10]), 2.045. The Fraction affected with Colo 320 [6] (FuTo III alone 6.25 uM) is 0.0295; with Colo 320 [6] (FuTo III alone 12.5 uM), 0.2522; in the data set on Colo 320 [6] (FuTo III alone 25 uM), 0.5605. The “Dm (median-effect dose) in the combination” value in the data set on Colo 320 [6] was determined as 0.4671 µM. Besides, the “combination index (CI) at the 50% growth inhibition dose (ED50)” value in the data set with Colo 320 [6] (compound 8 combined with doxorubicin, ratio 11.2:1, Colo 320, 72 h) amounted to 0.521 ± 0.15. Further, in the data set on Colo 320 [6], the “Dm (median-effect dose), drug alone” value was 21.37 µM.
